{"source": "paper PMC12766724", "about": "“Synthesis, Anthelmintic Activity, and Mechanism of Action of 5‑Aryl‑1H‑indoles” (Journal of Agricultural and Food Chemistry, 2025)", "key": {"[1]": {"test_system": "age unsynchronized Ditylenchus destructor", "test": "Motility on WMicrotracker ONE", "type": "in vivo", "experimental": "Populations of D. destructor, kindly provided by Central Institute for Supervising and Testing in Agriculture, the Ministry of Agriculture of the Czech Republic, were maintained according to the protocol previously described here.\n(§1) The effect of compounds on motility of H. contortus, D. destructor, and H. schachtii was evaluated using the WMicrotracker ONE platform according to previously published protocols. ,\n(§2) The instrument evaluates the activity of small animals by counting how many times infrared light microbeams passing through the wells of a microtiter plate are interrupted. In age-unsynchronized populations of D. destructor, we observed reduced motility of worm populations treated with the halogenated derivatives i-19, i-20, and i-21 (Figures A, S2.1A, S2.2A and Table S2.1). […] The decreases in mean activity counts after 72 h of treatment at 100 μM were 85% and 97%, respectively."}, "[2]": {"test_system": "Heterodera schachtii second-stage juveniles (J2)", "test": "Motility on WMicrotracker ONE", "type": "in vivo", "experimental": "H. schachtii was maintained on mustard (Sinapsis alba cv. Albatros) roots grown in vitro on modified KNOP medium according to the previously published protocols. ,\nas §1, §2"}, "Skin fibroblasts (BJ)": {"test_system": "Skin fibroblasts (BJ)", "test": "Resazurin assay, 3-day treatment", "type": "cell-based, human", "conditions": "BJ", "experimental": "Skin fibroblasts (BJ) were obtained from the American Type Culture Collection (ATCC, Manassas, VA), while human keratinocytes (HaCaT) were sourced from the German Cancer Research Center in Heidelberg, Germany. Cells were cultured in a standard DMEM medium from Sigma-Aldrich, supplemented with 10% fetal bovine serum, 2 mM glutamine, 100 U/mL penicillin, and 100 μg/mL streptomycin. Cultures were maintained under standard conditions (37 °C, 5% CO2, humidified atmosphere) and subcultured two to three times per week. We assessed the effect of 3-day compound treatments on cell viability using a resazurin reduction assay measuring mitochondrial activity. Approximately 5,000 cells in 80 μL of culture medium were seeded into the wells of a 96-well plate. Twenty-four hours later, 20 μL of 5-fold concentrated test compound solutions was added and tested across three concentrations prepared through 2-fold serial dilutions. The highest final concentration was 40 μM. After 72 h, we added an 11-fold concentrated resazurin solution to the wells, achieving a final concentration of 0.0125 μM. Fluorescence (ex = 570 nm, em = 610 nm) was measured after 3 h of incubation. […]"}, "[3]": {"test_system": "human keratinocytes (HaCaT)", "test": "Resazurin assay, 3-day treatment", "type": "cell-based", "experimental": "Skin fibroblasts (BJ) were obtained from the American Type Culture Collection (ATCC, Manassas, VA), while human keratinocytes (HaCaT) were sourced from the German Cancer Research Center in Heidelberg, Germany. Cells were cultured in a standard DMEM medium from Sigma-Aldrich, supplemented with 10% fetal bovine serum, 2 mM glutamine, 100 U/mL penicillin, and 100 μg/mL streptomycin. Cultures were maintained under standard conditions (37 °C, 5% CO2, humidified atmosphere) and subcultured two to three times per week. We assessed the effect of 3-day compound treatments on cell viability using a resazurin reduction assay measuring mitochondrial activity. Approximately 5,000 cells in 80 μL of culture medium were seeded into the wells of a 96-well plate. Twenty-four hours later, 20 μL of 5-fold concentrated test compound solutions was added and tested across three concentrations prepared through 2-fold serial dilutions. The highest final concentration was 40 μM. After 72 h, we added an 11-fold concentrated resazurin solution to the wells, achieving a final concentration of 0.0125 μM. Fluorescence (ex = 570 nm, em = 610 nm) was measured after 3 h of incubation.\nThe disubstituted derivatives i-25 and i-27 were the most toxic in the set, causing around a 50% decrease in viability of HaCaT cells at 40 μM."}, "C. elegans N2 wild-type": {"test_system": "C. elegans N2 wild-type", "test": "Chitinase assay (reproductive capacity)", "type": "in vivo, Caenorhabditis elegans", "experimental": "(§3) The effect of compounds on C. elegans was evaluated using the Chitinase assay as we described previously.\nAfter exposing L1 larvae to the compounds for 4 days, we observed the populations under a microscope and measured the Chitinase activity. The larvae produce the enzyme while hatching, and its activity is indicative of the reproductive capacity of the worms. Populations that fail to reproduce due to acute or reproductive toxicity or developmental abnormalities are detected."}, "[4]": {"test_system": "C. elegans CB211 lev-1(e211) IV.", "test": "Chitinase assay (reproductive capacity)", "type": "in vivo", "conditions": "Caenorhabditis elegans; levamisole-resistant strain", "experimental": "(§4) C. elegans strains used in this study were N2 (wild-type), levamisole-resistant strains ZZ15 (lev-8(x15) X) and […] (lev-1(e211) IV), ivermectin-resistant strain DA1316 (avr-14(ad1305) I; avr-15(vu227) glc-1(pk54) V), mebendazole-resistant strain […] (ben-1(e1880) III), and three strains with mutations in succinate dehydrogenase, RP2699, RP2700, and RP2702. The worms were cultivated on Nematode Growth Medium agar plates seeded with Escherichia coli OP50 in 20 °C according to the standard cultivation protocols. Strains RP2699, RP2700, and RP2702 were generated by Prof. Peter Roy’s group. All other strains and bacteria were purchased from the Caenorhabditis Genetics Center (CGC, Minneapolis, MN).\nas §3\n(§5) Lastly, strain DA1316 has mutations in three genes encoding subunits of the glutamate-gated chloride channel and is highly resistant to avermectins."}, "[5]": {"test_system": "C. elegans CB3474 ben-1(e1880) III.", "test": "Chitinase assay (reproductive capacity)", "type": "in vivo", "conditions": "Caenorhabditis elegans; mebendazole-resistant strain", "experimental": "as §4, §3, §5"}, "[6]": {"test_system": "C. elegans DA1316 avr-14(ad1305) I; avr-15(vu227) glc-1(pk54) V.", "test": "Chitinase assay (reproductive capacity)", "type": "in vivo", "conditions": "Caenorhabditis elegans; ivermectin-resistant strain", "experimental": "as §4, §3, §5"}, "[7]": {"test_system": "C. elegans ZZ15 lev-8(x15) X.", "test": "Chitinase assay (reproductive capacity)", "type": "in vivo", "conditions": "Caenorhabditis elegans; levamisole-resistant strain", "experimental": "as §4, §3, §5"}, "[8]": {"test_system": "Arabidopsis thaliana Col-0", "test": "Germination rate and phytotoxicity", "type": "in vivo", "conditions": "for average fraction of germinated seeds: 5 DPS; for main root length / plant weight: 10 DPS", "experimental": "Wild-type A. thaliana (Col-0 ecotype) seeds were sterilized with 70% EtOH with 0.1% Tween-20 solution (2 × 1 mL) for 10 min, rinsed with 96% EtOH (1 × 1 mL) for 10 min, and kept in the fridge (4 °C in the dark). Seeds were sown on a sterile 1/2 MS medium supplemented with 0.3% DMSO as a mock and test compounds at 5, 10, 50, and 100 μM concentrations in 0.3% DMSO. Plates were kept in long-day light conditions (22 °C/20 °C, 16 h light/8 h dark, 100 μmol m^–2 s^–1). After 5 days, the germination rate was evaluated. After an additional 5 days, primary root growth was measured with ImageJ software (https://imagej.nih.gov/ij/), and seedlings were weighted."}, "[9]": {"conditions": "10 mM group, initial (prior to the treatment)"}, "[10]": {"conditions": "10 µM group, initial (prior to the treatment)"}, "[11]": {"conditions": "50 µM group, initial (prior to the treatment)"}, "[12]": {"conditions": "100 µM group, initial (prior to the treatment)"}}, "note": "Like-named read-outs stand apart in the source and are kept apart here.", "data": [{"smiles": "[N-]=[N+]=[N-].[Na+]", "note": "[NaN3, reference compound]", "values": [{"measurement": "average activity counts", "setting": "[1]; [9]", "value": 223}, {"measurement": "average activity counts", "setting": "[1]; 10 mM, 48 h", "value": 7}, {"measurement": "average activity counts", "setting": "[1]; 10 mM, 72 h", "value": 2}, {"measurement": "average activity counts", "setting": "[2]; [9]", "value": 182}, {"measurement": "average activity counts", "setting": "[2]; 10 mM, 48 h", "value": 2}, {"measurement": "average activity counts", "setting": "[2]; 10 mM, 72 h", "value": 2}]}, {"smiles": "Oc1cccc(-c2ccc3[nH]ccc3c2)c1", "note": "[i-3]", "values": [{"measurement": "Average viability (signal intensity relative to control)", "setting": "Skin fibroblasts (BJ); 10 µM", "value": "1 ± 0.01"}, {"measurement": "Average viability (signal intensity relative to control)", "setting": "Skin fibroblasts (BJ); 20 µM", "value": "0.97 ± 0"}, {"measurement": "Average viability (signal intensity relative to control)", "setting": "Skin fibroblasts (BJ); 40 µM", "value": "0.89 ± 0"}, {"measurement": "Average viability (signal intensity relative to control)", "setting": "[3]; 10 µM", "value": "1.02 ± 0.06"}, {"measurement": "Average viability (signal intensity relative to control)", "setting": "[3]; 20 µM", "value": "1 ± 0.06"}, {"measurement": "Average viability (signal intensity relative to control)", "setting": "[3]; 40 µM", "value": "0.93 ± 0.06"}]}, {"smiles": "COc1ccc(-c2ccc3[nH]ccc3c2)cc1", "note": "[i-7]", "values": [{"measurement": "IC50", "setting": "C. elegans N2 wild-type; Caenorhabditis elegans", "value": "15.8 ± 1.78", "unit": "µM"}]}, {"smiles": "CCOc1cccc(-c2ccc3[nH]ccc3c2)c1", "note": "[i-9]", "values": [{"measurement": "IC50", "setting": "C. elegans N2 wild-type", "value": "9.76 ± 0.93", "unit": "µM"}, {"measurement": "IC50", "setting": "C. elegans N2 wild-type; Caenorhabditis elegans", "value": "< 10", "unit": "µM"}, {"measurement": "IC50", "setting": "[4]", "value": "9.65 ± 1.82", "unit": "µM"}, {"measurement": "IC50", "setting": "[5]", "value": "10.2 ± 0.5", "unit": "µM"}, {"measurement": "IC50", "setting": "[6]", "value": "9.34 ± 2.01", "unit": "µM"}, {"measurement": "IC50", "setting": "[7]", "value": "9.71 ± 1.34", "unit": "µM"}, {"measurement": "average activity counts", "setting": "[1]; [10]", "value": 199}, {"measurement": "average activity counts", "setting": "[1]; 10 µM, 48 h", "value": 183}, {"measurement": "average activity counts", "setting": "[1]; 10 µM, 72 h", "value": 205}, {"measurement": "average activity counts", "setting": "[1]; [11]", "value": 200}, {"measurement": "average activity counts", "setting": "[1]; 50 µM, 48 h", "value": 176}, {"measurement": "average activity counts", "setting": "[1]; 50 µM, 72 h", "value": 212}, {"measurement": "average activity counts", "setting": "[1]; [12]", "value": 228}, {"measurement": "average activity counts", "setting": "[1]; 100 µM, 48 h", "value": 171}, {"measurement": "average activity counts", "setting": "[1]; 100 µM, 72 h", "value": 181}, {"measurement": "average activity counts", "setting": "[2]; [10]", "value": 167}, {"measurement": "average activity counts", "setting": "[2]; 10 µM, 48 h", "value": 161}, {"measurement": "average activity counts", "setting": "[2]; 10 µM, 72 h", "value": 159}, {"measurement": "average activity counts", "setting": "[2]; [11]", "value": 201}, {"measurement": "average activity counts", "setting": "[2]; 50 µM, 48 h", "value": 207}, {"measurement": "average activity counts", "setting": "[2]; 50 µM, 72 h", "value": 188}, {"measurement": "average activity counts", "setting": "[2]; [12]", "value": 193}, {"measurement": "average activity counts", "setting": "[2]; 100 µM, 48 h", "value": 202}, {"measurement": "average activity counts", "setting": "[2]; 100 µM, 72 h", "value": 171}, {"measurement": "average fraction of germinated seeds", "setting": "[8]; 5 µM", "value": 0.96}, {"measurement": "main root length", "setting": "[8]; 5 µM", "value": 40.21, "unit": "mm"}, {"measurement": "plant weight", "setting": "[8]; 5 µM", "value": 33.97, "unit": "mg"}, {"measurement": "average fraction of germinated seeds", "setting": "[8]; 10 µM", "value": 0.95}, {"measurement": "main root length", "setting": "[8]; 10 µM", "value": 41.46, "unit": "mm"}, {"measurement": "plant weight", "setting": "[8]; 10 µM", "value": 35.69, "unit": "mg"}, {"measurement": "average fraction of germinated seeds", "setting": "[8]; 50 µM", "value": 0.96}, {"measurement": "main root length", "setting": "[8]; 50 µM", "value": 35.05, "unit": "mm"}, {"measurement": "plant weight", "setting": "[8]; 50 µM", "value": 31.4, "unit": "mg"}, {"measurement": "Average viability (signal intensity relative to control)", "setting": "Skin fibroblasts (BJ); 10 µM", "value": "0.92 ± 0.03"}, {"measurement": "Average viability (signal intensity relative to control)", "setting": "Skin fibroblasts (BJ); 20 µM", "value": "0.97 ± 0.04"}, {"measurement": "Average viability (signal intensity relative to control)", "setting": "Skin fibroblasts (BJ); 40 µM", "value": "0.94 ± 0.03"}, {"measurement": "Average viability (signal intensity relative to control)", "setting": "[3]; 10 µM", "value": "0.97 ± 0.04"}, {"measurement": "Average viability (signal intensity relative to control)", "setting": "[3]; 20 µM", "value": "1.01 ± 0.05"}, {"measurement": "Average viability (signal intensity relative to control)", "setting": "[3]; 40 µM", "value": "0.99 ± 0.02"}]}]}
